According to patent US20250282776A1, “Bicyclic TLR7 Agonists and Uses Thereof” (Bristol-Myers Squibb Company, priority 2024, published 2025):

Columns and labels:
human TLR8 (hTLR8) = target: T1, human TLR8 (hTLR8) (Homo sapiens, UniProt Q9NR97); assay: Human TLR8 agonist activity assay (measured in a similar manner); format: cell-based; details: HEK-Blue TLR cells, SEAP reporter, measured in a similar manner to TLR7; some values average of multiple measurements
T1 construct: expressed in transfected cells
T1 sequence (Q9NR97 27-1041): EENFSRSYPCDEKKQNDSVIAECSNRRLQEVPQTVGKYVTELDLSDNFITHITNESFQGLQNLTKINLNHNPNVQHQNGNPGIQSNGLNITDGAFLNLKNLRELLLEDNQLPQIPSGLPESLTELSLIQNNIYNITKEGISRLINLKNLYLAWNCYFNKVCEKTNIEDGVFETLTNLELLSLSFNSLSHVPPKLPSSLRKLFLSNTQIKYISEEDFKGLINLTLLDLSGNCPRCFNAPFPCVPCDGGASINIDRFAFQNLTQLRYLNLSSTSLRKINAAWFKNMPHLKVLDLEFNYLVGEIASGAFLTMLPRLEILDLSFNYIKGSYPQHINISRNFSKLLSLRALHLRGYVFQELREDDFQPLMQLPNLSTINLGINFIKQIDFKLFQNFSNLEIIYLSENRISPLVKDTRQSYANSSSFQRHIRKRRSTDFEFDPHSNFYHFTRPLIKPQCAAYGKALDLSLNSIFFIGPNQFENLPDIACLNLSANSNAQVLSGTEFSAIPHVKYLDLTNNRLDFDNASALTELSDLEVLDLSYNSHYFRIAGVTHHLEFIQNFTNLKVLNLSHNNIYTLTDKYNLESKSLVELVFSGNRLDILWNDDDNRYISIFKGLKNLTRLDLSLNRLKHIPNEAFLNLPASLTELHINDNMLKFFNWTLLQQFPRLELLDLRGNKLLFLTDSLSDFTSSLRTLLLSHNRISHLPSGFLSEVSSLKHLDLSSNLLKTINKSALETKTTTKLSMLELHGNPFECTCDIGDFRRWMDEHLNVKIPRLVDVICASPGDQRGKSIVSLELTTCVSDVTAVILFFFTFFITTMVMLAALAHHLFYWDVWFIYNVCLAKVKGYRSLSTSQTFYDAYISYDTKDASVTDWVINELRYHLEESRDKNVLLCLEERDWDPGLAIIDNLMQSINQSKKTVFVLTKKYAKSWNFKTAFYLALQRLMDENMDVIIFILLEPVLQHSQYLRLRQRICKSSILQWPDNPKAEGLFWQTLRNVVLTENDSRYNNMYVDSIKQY
Procedure: (§1) This procedure describes a method for assaying human TLR7 (hTLR7) and human TLR8 (hTLR8) agonist activity of the compounds disclosed herein.
HEK-Blue™ TLR7 cells were added to each well of a 384-well tissue-culture plate (15,000 cells per well) and incubated 16-18 h at 37° C., 5% CO2. Compounds (100 nL) were dispensed into wells containing the HEK-Blue™ TLR cells and the treated cells were incubated at 37° C., 5% CO2. After 18 h, ten microliters 5 of freshly prepared Quanti-Blue™ reagent (Invivogen) was added to each well and incubated for 30 min (37° C., […]). SLAP levels were measured using an Envision plate reader (OD=620 nm). […] Some of the reported activities were the average of multiple measurements.
TLR8 activity was measured in a similar manner.

human TLR7 (hTLR7) = target: T2, human TLR7 (hTLR7) (Homo sapiens, UniProt Q9NYK1); assay: Human TLR7 agonist activity assay (HEK-Blue TLR7 SEAP reporter); format: cell-based; details: HEK-Blue TLR7 cells, 18 h incubation, Quanti-Blue, OD 620 nm, some values average of multiple measurements
T2 construct: host or cells: HEK-Blue TLR7 cells (engineered human embryonic kidney cells)
T2 sequence (Q9NYK1 27-1049): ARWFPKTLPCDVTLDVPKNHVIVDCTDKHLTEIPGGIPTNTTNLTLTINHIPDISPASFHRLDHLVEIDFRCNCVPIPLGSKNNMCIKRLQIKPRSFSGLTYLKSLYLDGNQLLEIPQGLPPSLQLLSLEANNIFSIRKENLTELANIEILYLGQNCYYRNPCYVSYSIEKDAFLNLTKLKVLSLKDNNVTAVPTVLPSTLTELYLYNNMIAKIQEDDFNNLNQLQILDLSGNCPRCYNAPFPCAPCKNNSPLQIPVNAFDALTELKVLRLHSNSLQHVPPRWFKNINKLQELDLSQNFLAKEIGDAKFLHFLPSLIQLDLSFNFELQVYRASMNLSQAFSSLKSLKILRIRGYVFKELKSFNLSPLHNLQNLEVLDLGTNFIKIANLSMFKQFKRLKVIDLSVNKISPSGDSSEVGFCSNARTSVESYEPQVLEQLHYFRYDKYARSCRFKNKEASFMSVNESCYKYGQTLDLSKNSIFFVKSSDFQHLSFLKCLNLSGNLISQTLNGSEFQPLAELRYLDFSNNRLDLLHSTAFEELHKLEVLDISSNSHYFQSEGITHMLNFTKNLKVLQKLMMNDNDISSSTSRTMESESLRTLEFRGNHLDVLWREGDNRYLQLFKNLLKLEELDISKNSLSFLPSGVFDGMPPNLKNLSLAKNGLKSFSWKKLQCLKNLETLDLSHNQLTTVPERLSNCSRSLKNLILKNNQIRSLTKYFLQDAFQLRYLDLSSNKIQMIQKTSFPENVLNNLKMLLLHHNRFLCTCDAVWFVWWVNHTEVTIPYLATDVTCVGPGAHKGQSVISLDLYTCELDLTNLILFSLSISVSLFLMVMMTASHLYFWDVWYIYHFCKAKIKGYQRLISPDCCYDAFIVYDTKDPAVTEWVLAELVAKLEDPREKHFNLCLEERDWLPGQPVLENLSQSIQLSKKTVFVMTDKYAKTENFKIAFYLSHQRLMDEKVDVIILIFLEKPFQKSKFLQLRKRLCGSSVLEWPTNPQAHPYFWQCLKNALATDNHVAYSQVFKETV
Procedure: as §1
HEK-Blue™ TLR7 cells were added to each well of a 384-well tissue-culture plate (15,000 cells per well) and incubated 16-18 h at 37° C., 5% CO2. Compounds (100 nL) were dispensed into wells containing the HEK-Blue™ TLR cells and the treated cells were incubated at 37° C., 5% CO2. After 18 h, ten microliters 5 of freshly prepared Quanti-Blue™ reagent (Invivogen) was added to each well and incubated for 30 min (37° C., […]). SLAP levels were measured using an Envision plate reader (OD=620 nm). The half maximal effective concentration values (ECSO; compound concentration which induced a response halfway between the assay baseline and maximum) were calculated. Some of the reported activities were the average of multiple measurements.

Compound | EC50 (human TLR8 (hTLR8)) [µM] | EC50 (human TLR7 (hTLR7)) [µM]
CCCCN(CCO)c1nc(N)nc2cn(Cc3ccc(CN4CCN(C5CCC5)CC4)c4cccnc34)nc12 [Compound 60] | 0.469 | 0.326
CCCCN(CCO)c1nc(N)nc2cn(Cc3ccc(CN4CCN(CCO)CC4)cc3OC)nc12 [Compound 19] | 1.47 | 0.696
CCCCN(CCO)c1nc(N)nc2cn(Cc3ccc(CNC4CCC4)c4cccnc34)nc12 [Compound 46, 2-((5-Amino-2-((5-((cyclobutylamino)methyl)quinolin-8-yl)methyl)-2H-pyrazolo[4,3-d]pyrimidin-7-yl)(butyl)amino)ethan-1-ol] | 0.36 | 0.326
CCCCN(CCO)c1nc(N)nc2cn(Cc3ccc(CNC4CCC4)c4cn[nH]c34)nc12 [Compound 207] | 1.18 | 2.38
CCCCN(c1nc(N)nc2cn(Cc3ccc(CN[C@@H]4CCOC4)cc3OC)nc12)C(C)CO (stereo partly shown) [Compound 86] | 0.311 | 0.229
CCCCN(CCO)c1nc(N)nc2cn(Cc3ccc(CNCCCC4CC4)c4cccnc34)nc12 [Compound 63] | 0.736 | 0.915
CCCCN(CCO)c1nc(N)nc2cn(Cc3c(F)cc(CN[C@H]4C[C@H](O)C4)cc3F)nc12 [Compound 117] | 1.97 | 1.19
CCCCNCc1ccc(Cn2cc3nc(N)nc(N(CCO)CCCC)c3n2)c2ncccc12 [Compound 45] | 0.205 | 0.28
CCCCN(CCO)c1nc(N)nc2cn(Cc3ccc(CN[C@@H]4CCOC4)n4ncnc34)nc12 [Compound 172] | 1.35 | 0.87
CCCCCN(CCO)c1nc(N)nc2cn(Cc3ccc(CNC4CCC4)cc3OC)nc12 [Compound 44] | 0.705 | 0.825
CCCCN(CCO)c1nc(N)nc2cn(Cc3ccc(CNC4CCOCC4)n4ncnc34)nc12 [Compound 171] | 1.9 | 1.7
CCCCN(CCO)c1nc(N)nc2cn(Cc3c(F)cc(N4CCC(NC5CC6(COC6)C5)CC4)cc3F)nc12 [Compound 133] | 2.1 | 0.513
CCCCN(CCO)c1nc(N)nc2cn(Cc3cc(OC)c(C4CCN(C5CC6(COC6)C5)CC4)cc3OC)nc12 [Compound 109] | 1.99 | 1.46
CCCCN(CCO)c1nc(N)nc2cn(Cc3ccc(CCNC4CCOCC4)cc3OC)nc12 [Compound 156] | 2.17 | 1.55
CCCCN(CCO)c1nc(N)nc2cn(Cc3ccc(CN4CC5(C4)CN(C(C)C)C5)cc3OC)nc12 [Compound 30] | 1.62 | 1.41
CCCCN(CCO)c1nc(N)nc2cn(Cc3ccc(CNC(C)(C)C)c4c3OCCC4)nc12 [Compound 148] | 0.462 | 1.84
CCCCN(CCOC)c1nc(N)nc2cn(Cc3ccc(CN[C@@H]4CCOC4)cc3OC)nc12 [Compound 71] | 1.88 | 0.621
